Assay results published in publication PMC12028159, “L-Rhamnose Dehydrogenase LraA of Aspergillus niger Shows High Substrate Specificity Matching Its Expression Profile” (Journal of Fungi, 2025).

System: LraA (L-rhamnose dehydrogenase)
Test: NADH formation at […] nm, Michaelis-Menten fit
Format: biochemical, Aspergillus niger
Conditions: NAD+ 1 mM as co-substrate, 100 mM Tris-HCl pH 8.0, 25 °C

Km: 2400 ± 900 µM
SMILES: C[C@@H]1OC(O)[C@H](O)[C@H](O)[C@H]1O (stereo partly drawn) [L-rhamnose]
